Assay results published in patent publication US20190247376A1, “NICOTINIC ACETYLCHOLINE RECEPTOR AGONIST ATTENUATES ILC2-DEPENDENT AIRWAY HYPERREACTIVITY” (University of Southern California, priority 2016, published 2019).

System: Rag2−/− GC−/− mice
Assay: IL-33-induced AHR in Rag2−/− GC−/− mice after adoptive transfer of WT or α7nAChR-deficient ILC2s
Type: in vivo, mouse
Conditions: IL-33, agonist 125 μg days 1-3
Description: FIGS. 4A-4E: α7nAChR expression is critical for GTS-21 action on ILC2s in vivo. BALB/cByJ and α7nAChR^−/− mice were intranasally challenged with rm-IL-33 or PBS, and also given α7nAChR agonist (125 μg) or PBS on days 1-3. Measurement of lung function and analysis of BAL followed on day 4. (FIG. 4A) Lung resistance. (FIG. 4B) Total number of eosinophils in BALF. (FIG. 4C) Rag^−/− GC^−/− mice were received ILC2s from either WT or α7nAChR^−/− mice. After the adoptive transfer, mice were intranasally challenged with rm-IL-33 or PBS; they also received α7nAChR agonist (125 μg) or PBS on days 1-3. Measurement of lung function and analysis of BAL followed on day 4, according to scheme 4C. (FIG. 4D) Lung resistance. (FIG. 4E) Total number of eosinophils in BALF. Data are representative of at least three independent experiments and are presented as means±SEM (n=4; Student's test ***, p<0.001, WT IL-33+α7nAChR agonist vs. α7nAChR^−/− IL-33+α7nAChR agonist).
Given that a variety of cells participate in allergic inflammation, Applicants wanted to investigate the effect of the agonist specifically on ILC2s. Rag2^−/− GC^−/− mice lack not only B and T cells, but NK cells and ILC2s as well. Using methods previously described by our laboratory^36, Applicants adoptively transferred WT or α7nAChR-deficient ILC2s into these Rag2^−/− GC^−/− mice, and then treated them with IL-33, with or without α7nAChR agonist. As expected, Applicants observed a decrease of AHR and of eosinophil recruitment in mice injected with WT ILC2s in response to α7nAChR treatment (FIGS. 4C-4E).
Mice were intranasally (i.n.) administered carrier-free recombinant mouse IL-33 (BioLegend, San Diego Calif., 0.5 µg per mouse in 50 µL) with or without […] of α7nAChR agonist (kindly provided by Lin Chen) on three consecutive days. Mice were intranasally (i.n.) administered carrier-free recombinant mouse IL-25 (BioLegend, San Diego Calif., 5 µg per mouse in 50 µL) with or without […] of α7nAChR agonist on three consecutive days. For Alternaria alternata experiments, mice were i.n. administered Alternaria alternata (Greer Labs, Lenoir, N.C., 100 μg per mouse in 50 μL) with or without 125 µg α7nAChR agonist for four consecutive days. One day after the last challenge, mice were anesthetized using i.p. injection of ketamine (10 mg mL^−1) and xylazine (1 mg mL^−1). Measurements of airway resistance and dynamic compliance were conducted with the Fine Pointe RC System (Buxco Research Systems, Wilmington, N.C.), in which mice were mechanically ventilated using a modified version as previously described^36,67. […] Maximum lung resistance (RL) and minimum compliance (Cdyn) values were recorded during a three-minute period after each methacholine challenge.

[1] = Rag2−/− GC−/− mice injected with WT ILC2s
[2] = Rag2−/− GC−/− mice injected with α7nAChR-deficient ILC2s

Q: Which results are given for `COc1ccc(/C=C2\CCCN=C2c2cccnc2)c(OC)c1` [GTS-21, 3-[(3E)-3-[(2,4-dimethoxyphenyl)methylidene]-5,6-dihydro-4H-pyridin-2-yl]pyridine]?
A: AHR [1]: decrease; eosinophil recruitment [1]: decrease; AHR [2]: affected neither AHR nor eosinophilia; eosinophilia [2]: affected neither AHR nor eosinophilia
